Values quoted from earlier work as cited in patent US12329856B2, “Crosslinked hyaluronic acid composition with local anesthetics” (BIOPOLIMERI S.R.L., priority 2021, dated 2025).

Conditions: tabulated in the state of the art

Row | pKa^T (thermodynamic pKa) | SMILES
1 | 7.8 | Cc1cccc(C)c1NC(=O)C1CCCCN1C (centres unmarked) [mepivacaine]
2 | 7.6 | CCCNC(C)C(=O)Nc1c(C)csc1C(=O)OC (centres unmarked) [articaine]
